Data from patent US10294202B2, “Pyrrolidinones as herbicides” (FMC Corporation, priority 2013, dated 2019).

Key:
barnyardgrass [1] = test: Test A pre-/postemergence herbicide test; format: in vivo, Echinochloa crus-galli; details: for Barnyardgrass plant response rating: Preemergence, visual rating on 0 to 100 scale (0 no effect, 100 complete control)
Procedure, shortened: (§1)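 Seeds in loam–sand blend received preemergence directed soil spray; separately, plants 2–10 cm at one- to two-leaf stage received postemergence spray, both with test chemicals in non-phytotoxic solvent with surfactant. After ~10 days in greenhouse, injury rated visually against untreated controls, 0 (no effect) to 100 (complete control).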

ryegrass, Italian = test: Test A pre-/postemergence herbicide test; format: in vivo, Lolium multiflorum; details: for Plant response rating, Ryegrass, Italian: 0 to 100 scale
Procedure, shortened: as §1

ducksalad = test: Test C flooded paddy test; format: in vivo, Heteranthera limosa; details: Flood
Procedure, shortened: (§2)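 Visual injury scored against controls after 13 to 15 days in the greenhouse, using 0 (no effect) to 100 (complete control). Test compounds went straight into paddy water held 3 cm above the soil surface on 2-leaf-stage plants, with that flood depth maintained for the whole test.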

wheat = test: Test A pre-/postemergence herbicide test; format: in vivo, Triticum aestivum
Procedure, shortened: as §1

ragweed = test: Test A pre-/postemergence herbicide test; format: in vivo, Ambrosia elatior; details: for Plant response rating, Ragweed: 0 to 100 scale
Procedure, shortened: as §1

barnyardgrass [2] = test: Test C flooded paddy test; format: in vivo, Echinochloa crus-galli; details: Flood
Procedure, shortened: as §2

pigweed = test: Test A pre-/postemergence herbicide test; format: in vivo, Amaranthus retroflexus; details: for Pigweed plant response rating: Preemergence, visual rating on 0 to 100 scale (0 no effect, 100 complete control)
Procedure, shortened: as §1

corn = test: Test A pre-/postemergence herbicide test; format: in vivo, Zea mays
Procedure, shortened: as §1

rice = test: Test C flooded paddy test; format: in vivo, Oryza sativa; details: Flood
Procedure, shortened: as §2

sedge, umbrella = test: Test C flooded paddy test; format: in vivo, Cyperus difformis; details: Flood
Procedure, shortened: as §2

giant foxtail = test: Test A pre-/postemergence herbicide test; format: in vivo, Setaria faberii; details: for Foxtail, Giant plant response rating: Preemergence, visual rating on 0 to 100 scale (0 no effect, 100 complete control)
Procedure, shortened: as §1

blackgrass = test: Test A postemergence herbicide test; format: in vivo, Alopecurus myosuroides
Procedure, shortened: (§3)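 Potted in loam soil/sand blend; postemergence application at 1–2 leaf stage (2–10 cm). Greenhouse ~10 d. Visual injury vs untreated, 0–100 scale; 100 = complete control.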

galium = test: Test A postemergence herbicide test; format: in vivo, Galium aparine; details: for Plant response rating, Galium: 125 g ai/ha, 0 to 100 scale, 0 no effect, 100 complete control; for Galium plant response rating (0 to 100 scale, 0 is no effect, 100 is complete control): 500 g ai/ha
Procedure, shortened: as §3

kochia = test: Test A pre-/postemergence herbicide test; format: in vivo, Kochia scoparia; details: for Plant response rating, Kochia: 0 to 100 scale
Procedure, shortened: as §1

crabgrass, large = test: Test A pre-/postemergence herbicide test; format: in vivo, Digitaria sanguinalis
Procedure, shortened: as §1

morningglory = test: Test A pre-/postemergence herbicide test; format: in vivo, Ipomoea spp.
Procedure, shortened: as §1

velvetleaf = test: Test A pre-/postemergence herbicide test; format: in vivo, Abutilon theophrasti
Procedure, shortened: as §1

[3] = 125 g ai/ha, visual rating, 0 to 100 scale, 0 no effect, 100 complete control, approximately 10 days, preemergence
[4] = Postemergence, 125 g ai/ha, 0 to 100 scale, 0 no effect, 100 complete control
[5] = Postemergence, 500 g ai/ha, 0 to 100 scale (0 no effect, 100 complete control)
[6] = preemergence, 500 g ai/ha, 0 to 100 scale (0 no effect, 100 complete control)
[7] = 125 g ai/ha, visual rating, 0 no effect, 100 complete control, approximately 10 days, preemergence
[8] = Postemergence, 125 g ai/ha, 0 no effect, 100 complete control
[9] = 125 g ai/ha, scale of 0 to 100 where 0 is no effect and 100 is complete control, 13 to 15 days
[10] = preemergence, 500 g ai/ha, 0 to 100 scale
[11] = 125 g ai/ha, 0 to 100 scale, 0 no effect, 100 complete control
[12] = 500 g ai/ha, 0 to 100 scale (0 no effect, 100 complete control)
[13] = Preemergence, 125 g ai/ha, visual rating on 0 to 100 scale (0 no effect, 100 complete control)
[14] = 62 g ai/ha, scale of 0 to 100 where 0 is no effect and 100 is complete control, 13 to 15 days

O=C1NCC(c2cccc(C(F)(F)F)c2)C1C(=O)Nc1nc(C(F)(F)F)co1 (racemic) [Compound 114]
Plant response rating, Barnyardgrass (barnyardgrass [1]; [3]): 20
Plant response rating, Barnyardgrass (barnyardgrass [1]; [4]): 20
Plant response rating, Barnyardgrass (barnyardgrass [1]; [5]): 60
Plant response rating, Barnyardgrass (barnyardgrass [1]; [6]): 50
Plant response rating, Ryegrass, Italian (ryegrass, Italian; [7]): 0
Plant response rating, Ryegrass, Italian (ryegrass, Italian; [8]): 0
Ryegrass, Italian plant response rating (0 to 100 scale, 0 is no effect, 100 is complete control) (ryegrass, Italian; Postemergence, 500 g ai/ha): 60
Plant response rating, Ryegrass, Italian (ryegrass, Italian; preemergence, 500 g ai/ha): 30
Plant response rating, Ducksalad (ducksalad; [9]): 20
Plant response rating, Ducksalad (ducksalad; 250 g ai/ha, scale 0 to 100): 30
Plant response rating, Ducksalad (ducksalad; 500 g ai/ha, scale 0 to 100): 70
Plant response rating, Ducksalad (ducksalad; 1000 g ai/ha, scale 0 to 100): 80
Plant response rating, Wheat (wheat; [4]): 0
Wheat plant response rating (0 to 100 scale, 0 is no effect, 100 is complete control) (wheat; Postemergence, 500 g ai/ha): 20
Plant response rating, Ragweed (ragweed; [7]): 0
Plant response rating, Ragweed (ragweed; [8]): 0
Ragweed plant response rating (0 to 100 scale, 0 is no effect, 100 is complete control) (ragweed; Postemergence, 500 g ai/ha): 0
Plant response rating, Ragweed (ragweed; preemergence, 500 g ai/ha): 0
Plant response rating, Barnyardgrass (barnyardgrass [2]; [9]): 0
Plant response rating, Barnyardgrass (barnyardgrass [2]; 250 g ai/ha, scale 0 to 100): 0
Plant response rating, Barnyardgrass (barnyardgrass [2]; 500 g ai/ha, scale 0 to 100): 0
Plant response rating, Barnyardgrass (barnyardgrass [2]; 1000 g ai/ha, scale 0 to 100): 0
Plant response rating, Pigweed (pigweed; [3]): 0
Plant response rating, Pigweed (pigweed; [4]): 0
Pigweed plant response rating (0 to 100 scale, 0 is no effect, 100 is complete control) (pigweed; Postemergence, 500 g ai/ha): 0
Plant response rating, Pigweed (pigweed; [10]): 0
Plant response rating, Corn (corn; [4]): 0
Plant response rating, Corn (corn; [5]): 20
Plant response rating, Rice (rice; [9]): 0
Plant response rating, Rice (rice; 250 g ai/ha, scale 0 to 100): 0
Plant response rating, Rice (rice; 500 g ai/ha, scale 0 to 100): 0
Plant response rating, Rice (rice; 1000 g ai/ha, scale 0 to 100): 0
Plant response rating, Sedge, Umbrella (sedge, umbrella; [9]): 0
Plant response rating, Sedge, Umbrella (sedge, umbrella; 250 g ai/ha, scale 0 to 100): 0
Plant response rating, Sedge, Umbrella (sedge, umbrella; 500 g ai/ha, scale 0 to 100): 0
Plant response rating, Sedge, Umbrella (sedge, umbrella; 1000 g ai/ha, scale 0 to 100): 0
Plant response rating, Foxtail, Giant (giant foxtail; [3]): 20
Plant response rating, Foxtail, Giant (giant foxtail; [4]): 40
Foxtail, Giant plant response rating (0 to 100 scale, 0 is no effect, 100 is complete control) (giant foxtail; Postemergence, 500 g ai/ha): 70
Plant response rating, Foxtail, Giant (giant foxtail; [10]): 70
Plant response rating, Blackgrass (blackgrass; [11]): 20
Plant response rating, Blackgrass (blackgrass; [12]): 30
Plant response rating, Galium (galium): 0
Galium plant response rating (0 to 100 scale, 0 is no effect, 100 is complete control) (galium): 20
Plant response rating, Kochia (kochia; [7]): 0
Plant response rating, Kochia (kochia; [8]): 0
Kochia plant response rating (0 to 100 scale, 0 is no effect, 100 is complete control) (kochia; Postemergence, 500 g ai/ha): 20
Plant response rating, Kochia (kochia; preemergence, 500 g ai/ha): 0

O=C1NCC(c2cccc(C(F)(F)F)c2)C1C(=O)Nc1nncs1 (racemic) [Compound 111]
Plant response rating, Barnyardgrass (barnyardgrass [1]; [4]): 0
Plant response rating, Barnyardgrass (barnyardgrass [1]; [5]): 0
Barnyardgrass plant response rating (barnyardgrass [1]; 125 g ai/ha): 0
Plant response rating, Barnyardgrass (barnyardgrass [1]; [6]): 0
Plant response rating, Ryegrass, Italian (ryegrass, Italian; [8]): 0
Ryegrass, Italian plant response rating (0 to 100 scale, 0 is no effect, 100 is complete control) (ryegrass, Italian; Postemergence, 500 g ai/ha): 0
Ryegrass, Italian plant response rating (ryegrass, Italian; [13]): 0
Plant response rating, Ryegrass, Italian (ryegrass, Italian; preemergence, 500 g ai/ha): 0
Plant response rating, Ducksalad (ducksalad; [9]): 0
Plant response rating, Ducksalad (ducksalad; 250 g ai/ha, scale 0 to 100): 0
Plant response rating, Ducksalad (ducksalad; 500 g ai/ha, scale 0 to 100): 30
Plant response rating, Ducksalad (ducksalad; 1000 g ai/ha, scale 0 to 100): 40
Plant response rating, Wheat (wheat; [4]): 0
Wheat plant response rating (0 to 100 scale, 0 is no effect, 100 is complete control) (wheat; Postemergence, 500 g ai/ha): 0
Plant response rating, Ragweed (ragweed; [8]): 0
Ragweed plant response rating (0 to 100 scale, 0 is no effect, 100 is complete control) (ragweed; Postemergence, 500 g ai/ha): 0
Ragweed plant response rating (ragweed; [13]): 0
Plant response rating, Ragweed (ragweed; preemergence, 500 g ai/ha): 0
Plant response rating, Barnyardgrass (barnyardgrass [2]; [9]): 0
Plant response rating, Barnyardgrass (barnyardgrass [2]; 250 g ai/ha, scale 0 to 100): 0
Plant response rating, Barnyardgrass (barnyardgrass [2]; 500 g ai/ha, scale 0 to 100): 0
Plant response rating, Barnyardgrass (barnyardgrass [2]; 1000 g ai/ha, scale 0 to 100): 0
Plant response rating, Pigweed (pigweed; [4]): 0
Pigweed plant response rating (0 to 100 scale, 0 is no effect, 100 is complete control) (pigweed; Postemergence, 500 g ai/ha): 0
Pigweed plant response rating (pigweed; 125 g ai/ha): 0
Plant response rating, Pigweed (pigweed; [10]): 0
Plant response rating, Corn (corn; [4]): 0
Plant response rating, Corn (corn; [5]): 0
Plant response rating, Rice (rice; [9]): 0
Plant response rating, Rice (rice; 250 g ai/ha, scale 0 to 100): 0
Plant response rating, Rice (rice; 500 g ai/ha, scale 0 to 100): 0
Plant response rating, Rice (rice; 1000 g ai/ha, scale 0 to 100): 0
Plant response rating, Sedge, Umbrella (sedge, umbrella; [9]): 0
Plant response rating, Sedge, Umbrella (sedge, umbrella; 250 g ai/ha, scale 0 to 100): 0
Plant response rating, Sedge, Umbrella (sedge, umbrella; 500 g ai/ha, scale 0 to 100): 0
Plant response rating, Sedge, Umbrella (sedge, umbrella; 1000 g ai/ha, scale 0 to 100): 0
Plant response rating, Foxtail, Giant (giant foxtail; [4]): 0
Foxtail, Giant plant response rating (0 to 100 scale, 0 is no effect, 100 is complete control) (giant foxtail; Postemergence, 500 g ai/ha): 0
Foxtail, Giant plant response rating (giant foxtail; 125 g ai/ha): 0
Plant response rating, Foxtail, Giant (giant foxtail; [10]): 0
Plant response rating, Blackgrass (blackgrass; [11]): 0
Plant response rating, Blackgrass (blackgrass; [12]): 0
Plant response rating, Galium (galium): 0
Galium plant response rating (0 to 100 scale, 0 is no effect, 100 is complete control) (galium): 0
Plant response rating, Kochia (kochia; [8]): 0
Kochia plant response rating (0 to 100 scale, 0 is no effect, 100 is complete control) (kochia; Postemergence, 500 g ai/ha): 0
Kochia plant response rating (kochia; [13]): 0
Plant response rating, Kochia (kochia; preemergence, 500 g ai/ha): 0

N#Cc1ccccc1NC(=O)C1C(=O)NCC1c1ccc(Cl)c(Cl)c1 (racemic) [Compound 15]
Plant response rating, Barnyardgrass (barnyardgrass [1]; [4]): 0
Plant response rating, Barnyardgrass (barnyardgrass [1]; [5]): 0
Barnyardgrass plant response rating (barnyardgrass [1]; 125 g ai/ha): 0
Plant response rating, Barnyardgrass (barnyardgrass [1]; [6]): 0
Plant response rating, Ducksalad (ducksalad; [14]): 0
Plant response rating, Ducksalad (ducksalad; 250 g ai/ha, scale 0 to 100): 0
Plant response rating, Crabgrass, Large (crabgrass, large; [4]): 0
Plant response rating, Crabgrass, Large (crabgrass, large; [5]): 0
Crabgrass, Large plant response rating (crabgrass, large; [13]): 60
Plant response rating, Crabgrass, Large (crabgrass, large; [10]): 80
Plant response rating, Wheat (wheat; [4]): 0
Plant response rating, Wheat (wheat; [5]): 0
Wheat plant response rating (wheat; [13]): 0
Plant response rating, Wheat (wheat; [10]): 0
Plant response rating, Barnyardgrass (barnyardgrass [2]; [14]): 0
Plant response rating, Barnyardgrass (barnyardgrass [2]; 250 g ai/ha, scale 0 to 100): 0
Plant response rating, Pigweed (pigweed; [4]): 0
Plant response rating, Pigweed (pigweed; [5]): 0
Pigweed plant response rating (pigweed; 125 g ai/ha): 0
Plant response rating, Pigweed (pigweed; [10]): 0
Plant response rating, Morningglory (morningglory; [4]): 0
Plant response rating, Morningglory (morningglory; [5]): 0
Morningglory plant response rating (morningglory; [13]): 0
Plant response rating, Morningglory (morningglory; [10]): 0
Plant response rating, Corn (corn; [4]): 0
Plant response rating, Corn (corn; [5]): 0
Corn plant response rating (corn; [13]): 0
Plant response rating, Corn (corn; [10]): 0
Plant response rating, Rice (rice; [14]): 0
Plant response rating, Rice (rice; 250 g ai/ha, scale 0 to 100): 0
Plant response rating, Sedge, Umbrella (sedge, umbrella; [14]): 0
Plant response rating, Sedge, Umbrella (sedge, umbrella; 250 g ai/ha, scale 0 to 100): 0
Plant response rating, Foxtail, Giant (giant foxtail; [4]): 0
Plant response rating, Foxtail, Giant (giant foxtail; [5]): 0
Foxtail, Giant plant response rating (giant foxtail; 125 g ai/ha): 20
Plant response rating, Foxtail, Giant (giant foxtail; [10]): 50
Plant response rating, Velvetleaf (velvetleaf; [4]): 0
Plant response rating, Velvetleaf (velvetleaf; [5]): 0
Velvetleaf plant response rating (velvetleaf; [13]): 0
Plant response rating, Velvetleaf (velvetleaf; [10]): 0
